Test results as given in PubChem BioAssay AID256 (DTP/NCI, 2004).
Values joined by “and” are separate entries in the source; they are usually repeats but may differ in a detail not shown here. Identical values can stand only once. Inconclusive results and toxic doses are left out. How the source made its calls: active means survival T/C of 150% or more; inactive means T/C below 125% in these data.

Test system: CD2F1 mice, L1210 leukemia ip, survival T/C
Test: NCI In Vivo Anticancer Drug Screen. Data for tumor model L1210 Leukemia (intraperitoneal) in CD2F1 (CDF1) mice
Conditions: endpoint: mean survival time, higher = longer survival
Method in brief: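 Transplantable tumor in mice; compound-treated vs vehicle-treated groups. Read-out = treated/control ratio of the measured endpoint.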

[1] = dose: 75.0 mg/kg/injection, schedule: Q01DX001 (ip), vehicle: saline
[2] = dose: 100.0 mg/kg/injection, schedule: Q04DX003 (ip), vehicle: saline with Tween-80
[3] = dose: 200.0 mg/kg/injection, schedule: Q04DX003 (ip), vehicle: saline with Tween-80
[4] = dose: 400.0 mg/kg/injection, schedule: Q04DX003 (ip), vehicle: saline with Tween-80
[5] = dose: 50.0 mg/kg/injection, schedule: Q01DX009 (ip), vehicle: saline with Tween-80
[6] = dose: 100.0 mg/kg/injection, schedule: Q01DX009 (ip), vehicle: saline with Tween-80
[7] = dose: 200.0 mg/kg/injection, schedule: Q01DX009 (ip), vehicle: saline with Tween-80
[8] = dose: 100.0 mg/kg/injection, schedule: Q01DX001 (ip), vehicle: saline with Tween-80
[9] = dose: 200.0 mg/kg/injection, schedule: Q01DX001 (ip), vehicle: saline with Tween-80
[10] = dose: 400.0 mg/kg/injection, schedule: Q01DX001 (ip), vehicle: saline with Tween-80
[11] = dose: 25.0 mg/kg/injection, schedule: Q01DX009 (ip), vehicle: saline with Tween-80
[12] = dose: 150.0 mg/kg/injection, schedule: Q01DX001 (ip), vehicle: saline
[13] = dose: 400.0 mg/kg/injection, schedule: Q01DX009 (ip), vehicle: saline with Tween-80

Measured: T/C

CCCCCCCCCCCCCCn1cnc2c(Cl)ncnc21
inactive: dose: 12.5 mg/kg/injection, schedule: Q01DX005 (ip), vehicle: other 105 % of control | dose: 25.0 mg/kg/injection, schedule: Q01DX005 (ip), vehicle: other 97 % of control | dose: 50.0 mg/kg/injection, schedule: Q01DX005 (ip), vehicle: other 94 % of control | dose: 100.0 mg/kg/injection, schedule: Q01DX005 (ip), vehicle: other 97 % of control | dose: 200.0 mg/kg/injection, schedule: Q01DX005 (ip), vehicle: other 102 % of control

Cc1cccc(N=NN(C)C)c1
inactive: dose: 19.0 mg/kg/injection, schedule: Q01DX009 (ip), vehicle: Klucel (hydroxypropylcellulose) (HPC) 113 % of control | dose: 29.0 mg/kg/injection, schedule: Q01DX009 (ip), vehicle: Klucel (hydroxypropylcellulose) (HPC) 119 % of control | dose: 44.0 mg/kg/injection, schedule: Q01DX009 (ip), vehicle: Klucel (hydroxypropylcellulose) (HPC) 123 % of control | dose: 66.0 mg/kg/injection, schedule: Q01DX009 (ip), vehicle: Klucel (hydroxypropylcellulose) (HPC) 114 % of control | [1] 120 % of control

O=S(=O)(Nc1cc(S(=O)(=O)c2ccccc2)c(O)c2ccccc12)c1ccccc1
inactive: [2] 96 % of control | [3] 86 % of control | [4] 91 % of control

C=CC1(C)C(C)=C(C)C(C)=C1C
inactive: dose: 100.0 mg/kg/injection, schedule: Q01DX001 (ip), vehicle: saline sonified 100 % of control | dose: 200.0 mg/kg/injection, schedule: Q01DX001 (ip), vehicle: saline sonified 94 % of control | dose: 400.0 mg/kg/injection, schedule: Q01DX001 (ip), vehicle: saline sonified 89 % of control

N.O=S(=O)(O)O.[Al]
inactive: [5] 97 % of control | [6] 91 % of control | [2] 94 % of control | [7] 96 % of control | [3] 99 % of control

C#CCOCCBr
inactive: dose: 50.0 mg/kg/injection, schedule: Q01DX009 (ip), vehicle: acetone 94 % of control | dose: 100.0 mg/kg/injection, schedule: Q01DX009 (ip), vehicle: acetone 100 % of control | dose: 200.0 mg/kg/injection, schedule: Q01DX009 (ip), vehicle: acetone 103 % of control

O=C(O)c1ccc2c(c1Cl)C(=O)c1ccccc1C2=O
inactive: [5] 100 % of control | [6] 103 % of control | [7] 100 % of control

ClC1CC2C=CC1C2 (stereo not given)
inactive: [8] 103 % of control | [9] 100 % of control | [10] 102 % of control

CC1(C2CC(=O)OC2=O)OCCO1 (stereo not given)
inactive: dose: 50.0 mg/kg/injection, schedule: Q01DX001 (ip), vehicle: saline 96 % of control | dose: 100.0 mg/kg/injection, schedule: Q01DX001 (ip), vehicle: saline 102 % of control | dose: 200.0 mg/kg/injection, schedule: Q01DX001 (ip), vehicle: saline 93 % of control

CN1CCC(O)(O)C(Br)C1 (stereo not given)
inactive: dose: 18.8 mg/kg/injection, schedule: Q01DX009 (ip), vehicle: saline 98 % of control | dose: 18.8 mg/kg/injection, schedule: Q04DX003 (ip), vehicle: saline 102 % of control | dose: 37.5 mg/kg/injection, schedule: Q01DX009 (ip), vehicle: saline 100 % of control | dose: 37.5 mg/kg/injection, schedule: Q04DX003 (ip), vehicle: saline 106 % of control | [1] 102 % of control | dose: 75.0 mg/kg/injection, schedule: Q01DX009 (ip), vehicle: saline 88 % of control | dose: 75.0 mg/kg/injection, schedule: Q04DX003 (ip), vehicle: saline 100 % of control

O=C(CNC(=O)Nc1cccc(C(F)(F)F)c1)N/N=C/c1c(O)ccc2ccccc12
inactive: dose: 12.5 mg/kg/injection, schedule: Q01DX009 (ip), vehicle: saline with Tween-80 94 % of control | [11] 94 % of control | [5] 94 % of control and 96 % of control | [6] 100 % of control | [7] 100 % of control

CCCCCCCCN(C)C
inactive: [11] 91 % of control | [5] 87 % of control

c1ccc(C(c2ccccc2)n2ccnc2)cc1
inactive: [1] 100 % of control | [12] 101 % of control

C1N2CN3CN1CN(C2)C3.[Cl][Pt][Cl]
inactive: dose: 25.0 mg/kg/injection, schedule: Q04DX003 (ip), vehicle: saline with Tween-80 123 % of control | dose: 50.0 mg/kg/injection, schedule: Q04DX003 (ip), vehicle: saline with Tween-80 101 % of control | [2] 98 % of control

COc1cccc(Cc2c[nH]c(=O)[nH]c2=O)c1
inactive: [2] 98 % of control | [3] 100 % of control | [4] 92 % of control

C/C(=N/NC(N)=S)c1ccc(NC(=O)C(Cl)Cl)cc1
inactive: [1] 100 % of control | [12] 96 % of control

NC(=O)c1n[nH]c(C2OC(CO)C(O)C2O)n1 (stereo not given)
inactive: dose: 12.5 mg/kg/injection, schedule: Q01DX005 (ip), vehicle: water 94 % of control | dose: 25.0 mg/kg/injection, schedule: Q01DX005 (ip), vehicle: water 92 % of control | dose: 50.0 mg/kg/injection, schedule: Q01DX005 (ip), vehicle: water 94 % of control | dose: 100.0 mg/kg/injection, schedule: Q01DX005 (ip), vehicle: water 94 % of control | dose: 200.0 mg/kg/injection, schedule: Q01DX005 (ip), vehicle: water 96 % of control

CCCCC1=C(P(=O)(OCC)OCC)C(F)(F)C(F)(F)C1(F)F
inactive: dose: 75.0 mg/kg/injection, schedule: Q01DX001 (ip), vehicle: other 98 % of control | dose: 150.0 mg/kg/injection, schedule: Q01DX001 (ip), vehicle: other 86 % of control | dose: 300.0 mg/kg/injection, schedule: Q01DX001 (ip), vehicle: other 100 % of control

CCCCCCCCCCC(CCCCCCCCCC)=NN=C(CCCCCCCCCC)CCCCCCCCCC
inactive: dose: 100.0 mg/kg/injection, schedule: Q01DX001 (ip), vehicle: Klucel (hydroxypropylcellulose) (HPC) 90 % of control | dose: 200.0 mg/kg/injection, schedule: Q01DX001 (ip), vehicle: Klucel (hydroxypropylcellulose) (HPC) 86 % of control | dose: 400.0 mg/kg/injection, schedule: Q01DX001 (ip), vehicle: Klucel (hydroxypropylcellulose) (HPC) 90 % of control

CC(CO)CCC1OC2CC3C4CCC5CC(O)CCC5(C)C4CCC3(C)C2C1C (stereo not given)
inactive: [8] 95 % of control | [9] 94 % of control

CCOC(=O)C[n+]1ccc(C(=O)c2cc3ccccc3[nH]2)cc1
inactive: [8] 97 % of control | [9] 101 % of control | [10] 93 % of control

COc1ccc(CCNC(=S)NN)cc1OC
inactive: dose: 25.0 mg/kg/injection, schedule: Q04DX002 (ip), vehicle: saline with Tween-80 106 % of control | dose: 50.0 mg/kg/injection, schedule: Q04DX002 (ip), vehicle: saline with Tween-80 95 % of control | dose: 100.0 mg/kg/injection, schedule: Q04DX002 (ip), vehicle: saline with Tween-80 114 % of control | dose: 200.0 mg/kg/injection, schedule: Q04DX002 (ip), vehicle: saline with Tween-80 103 % of control

O=C1C=C(Nc2nc(O)cc(=O)[nH]2)c2ccccc2C1=O
inactive: dose: 100.0 mg/kg/injection, schedule: Q01DX009 (ip), vehicle: Klucel (hydroxypropylcellulose) (HPC) 97 % of control

CC(C)(C=O)CNC(C)(C)C
inactive: [2] 105 % of control | [3] 96 % of control

COc1ccc(C=Nc2ccc(C)cc2)cc1
inactive: [6] 108 % of control | [2] 103 % of control | [7] 98 % of control | [3] 115 % of control | [13] 104 % of control | [4] 116 % of control

ClC1(Cl)C2(Cl)C3(Cl)C4(Cl)C(Cl)(Cl)C5(Cl)C3(Cl)C1(Cl)C5(Cl)C24Cl (stereo not given)
inactive: [6] 97 % of control | [2] 103 % of control | [7] 102 % of control | [3] 94 % of control | [13] 100 % of control | [4] 96 % of control

CCN(CC)CC(COC)Oc1cc(C)ccc1C(C)C (stereo not given)
inactive: dose: 100.0 mg/kg/injection, schedule: Q04DX003 (ip), vehicle: Klucel (hydroxypropylcellulose) (HPC) 92 % of control | dose: 200.0 mg/kg/injection, schedule: Q04DX003 (ip), vehicle: Klucel (hydroxypropylcellulose) (HPC) 93 % of control

CCCN(CCC)C(=O)C(=O)OCC
inactive: dose: 6.25 mg/kg/injection, schedule: Q01DX009 (ip), vehicle: saline 90 % of control | dose: 12.5 mg/kg/injection, schedule: Q01DX009 (ip), vehicle: saline 96 % of control | dose: 25.0 mg/kg/injection, schedule: Q01DX009 (ip), vehicle: saline 93 % of control

CC(C)C(C(=O)c1ccccc1)C(c1ccccc1)c1ccccc1 (stereo not given)
inactive: dose: 100.0 mg/kg/injection, schedule: Q04DX003 (ip), vehicle: other 106 % of control | dose: 200.0 mg/kg/injection, schedule: Q04DX003 (ip), vehicle: other 97 % of control | dose: 400.0 mg/kg/injection, schedule: Q04DX003 (ip), vehicle: other 100 % of control
